The first assay has as its system HCC461. As to the kind of experiment: cell viability assay in HCC461, compound alone. As to conditions: HCC461, HCC461; Tables 6-9; read-out: IC50 (μM) in cell viability assay in HCC461. It counts as cell-based.
Take `CN[C@@H](C)C(=O)NC(C(=O)N1C[C@@H](NC(=O)c2cccc(C(=O)N[C@H]3C[C@@H](C(=O)N[C@H](C)c4ccccc4)N(C(=O)[C@H](CCC(=O)OC)NC(=O)[C@H](CO)NC)C3)c2)CC1C(=O)N[C@@H]1CCCc2ccccc21)C(C)(C)C` (stereo partly shown) [Compound 154]: the IC50 (as a rule, the midpoint of a concentration-inhibition curve) worked out at 3.6 µM.
As to `CN[C@@H](C)C(=O)NC(C(=O)N1C[C@@H](NC(=O)c2cccc(C(=O)NCCCC[C@H](NC(=O)C(NC(C)[C@H](C)NC)C(C)(C)C)C(=O)N3CCCCC3)c2)C[C@H]1C(=O)N[C@@H]1CCCc2ccccc21)C(C)(C)C` (stereo partly shown) [Compound 152], the IC50 came to 0.447 µM.
As for `CN[C@@H](C)C(=O)NC(C(=O)N1C[C@@H](NC(=O)c2cc(NC(=O)OCc3ccc([N+](=O)[O-])cc3)cc(C(=O)N[C@H]3C[C@@H](C(=O)N[C@@H]4CCCc5ccccc54)N(C(=O)[C@@H](NC(=O)[C@H](C)NC)C(C)(C)C)C3)c2)CC1C(=O)N[C@@H]1CCCc2ccccc21)C(C)(C)C` (stereo partly shown) [Compound 110], the concentration for half-maximal inhibition (IC50) came to 0.059 µM.
On the same count and under the same terms, under `CN[C@@H](C)C(=O)N[C@@H](CCCCNC(=O)c1cccc(C(=O)N[C@H]2C[C@@H](C(=O)N[C@@H]3CCCc4ccccc43)N(C(=O)[C@@H](NC(=O)[C@H](C)NC)C(C)(C)C)C2)c1)C(=O)N1CC=C[C@H]1C(=O)N[C@@H]1CCCc2ccccc21` [Compound 144] stands 0.043 µM; under `CN[C@@H](C)C(=O)N[C@H](C(=O)N1CC[C@H](NC(=O)c2cccc(C(=O)N[C@H]3C[C@@H](C(=O)N[C@@H]4CCCc5ccccc54)N(C(=O)[C@@H](NC(=O)[C@H](C)NC)C(C)(C)C)C3)c2)C1)C(C)(C)C` [Compound 131], 0.642 µM.

Still in this assay, the particulars now being: HCC461, HCC461; Tables 15-18; read-out: IC50 (uM) in cell viability assay in HCC461.
For `CN[C@@H](C)C(=O)N[C@@H](Cc1ccc(O[C@H]2C[C@@H](C(=O)N[C@@H]3CCCc4ccccc43)N(C(=O)[C@@H](NC(=O)[C@H](C)NC)C(C)(C)C)C2)cc1)C(=O)N1CCCC1` [Compound H-3], the IC50 was 0.088 µM.
The same measure, in the same setting: under `CN[C@@H](C)C(=O)N[C@@H](CCCCCC[C@H](NC(=O)[C@H](C)NC)C(=O)N1CCC[C@H]1C(=O)NC1c2ccccc2-c2ccccc21)C(=O)N1CCC[C@H]1C(=O)NC1c2ccccc2-c2ccccc21` [Compound P2-6] stands 0.024 µM.
The same measure, in the same setting: the value for `CN[C@@H](C)C(=O)N[C@H](C(=O)N1CCC[C@H]1C(=O)N[C@H](CNC(=O)c1cccc(C(=O)NC[C@@H](NC(=O)[C@@H]2CCCN2C(=O)[C@@H](NC(=O)[C@H](C)NC)C(C)(C)C)c2ccccc2)c1)c1ccccc1)C(C)(C)C` [Compound P4-11] was 0.068 µM; that for `CN[C@@H](C)C(=O)N[C@@H](CCNC(=O)c1cc(N)cc(C(=O)NCC[C@H](NC(=O)[C@H](C)NC)C(=O)N2CCC[C@H]2C(=O)N[C@@H]2CCCc3ccccc32)c1)C(=O)N1CCC[C@H]1C(=O)N[C@@H]1CCCc2ccccc21` [Compound P2-27] was 0.165 µM; that for `CN[C@@H](C)C(=O)N[C@H](C(=O)N1CCC[C@H]1C(=O)N[C@H](CNC(=O)c1ccc(C(=O)NC[C@@H](NC(=O)[C@@H]2CCCN2C(=O)[C@@H](NC(=O)[C@H](C)NC)C(C)(C)C)c2ccccc2)cc1)c1ccccc1)C(C)(C)C` [Compound P4-12] was 0.038 µM.
On the same count and under the same terms, the value for `CN[C@@H](C)C(=O)N[C@@H](CCCCNc1nc(NCCCC[C@H](NC(=O)[C@H](C)NC)C(=O)N2CCC[C@H]2C(=O)N[C@@H]2CCCc3ccccc32)nc(OC)n1)C(=O)N1CCC[C@H]1C(=O)N[C@@H]1CCCc2ccccc21` [Compound P2-32] was 0.038 µM; that for `CN[C@@H](C)C(=O)NC(C(=O)N1CCC[C@H]1C(=O)NC1CCCc2ccccc21)c1ccc(-c2ccc(C(NC(=O)[C@H](C)NC)C(=O)N3CCC[C@H]3C(=O)NC3CCCc4ccccc43)cc2)cc1` (stereo partly shown) [Compound P2-2] was 0.098 µM; that for `CN[C@@H](C)C(=O)N[C@H](C(=O)N1CCC[C@H]1C(=O)N[C@H](CNC(=O)CCCC(=O)NC[C@@H](NC(=O)[C@@H]1CCCN1C(=O)[C@@H](NC(=O)[C@H](C)NC)C(C)(C)C)c1ccccc1)c1ccccc1)C(C)(C)C` [Compound P4-14] was 0.093 µM.

The same assay, now with this note: HCC461, HCC461 cells, compound alone; read-out: IC50 (uM) in cell viability assay in HCC461.
`CN[C@@H](C)C(=O)N[C@H](C(=O)N1C[C@@H](NC(=O)c2cccc(C(=O)N[C@H]3C[C@@H](C(=O)N[C@@H]4CCCc5ccccc54)N(C(=O)[C@@H](NC(=O)[C@H](C)NC)C4CCCCC4)C3)c2)C[C@H]1C(=O)N[C@@H]1CCCc2ccccc21)C1CCCCC1` [Compound P3-53]: the half-maximal inhibitory concentration (IC50) stood at 0.01 µM.
`CN[C@@H](C)C(=O)N[C@H](C(=O)N1CCC[C@H]1C(=O)N[C@H](CNC(=O)[C@@H]1CC[C@](C)(C(=O)NC[C@@H](NC(=O)[C@@H]2CCCN2C(=O)[C@@H](NC(=O)[C@H](C)NC)C(C)(C)C)c2ccccc2)C1(C)C)c1ccccc1)C(C)(C)C` [Compound P3-48]: the IC50 was found to be 0.183 µM.
Take `CN[C@@H](C)C(=O)N[C@H](C(=O)N1C[C@@H](NC(=O)c2cc(C(=O)N[C@H]3C[C@@H](C(=O)N[C@@H]4CCCc5ccccc54)N(C(=O)[C@@H](NC(=O)[C@H](C)NC)C(C)(C)C)C3)cc(C(C)(C)C)c2)C[C@H]1C(=O)N[C@@H]1CCCc2ccccc21)C(C)(C)C` [Compound P3-23]: the IC50 came out at 0.007 µM.
The same measure, in the same setting: the value for `CN[C@@H](C)C(=O)N[C@H](C(=O)N1C[C@@H](NC(=O)c2cccc(C(=O)N[C@H]3C[C@@H](C(=O)N[C@H](C)c4ccccc4)N(C(=O)[C@@H](NC(=O)[C@H](C)NC)C4CCCCC4)C3)c2)C[C@H]1C(=O)N[C@H](C)c1ccccc1)C1CCCCC1` [Compound P3-77] was 0.014 µM; that for `CN[C@@H](C)C(=O)N[C@H](C(=O)N1C[C@@H](NC(=O)C2CCCC(C(=O)N[C@H]3C[C@@H](C(=O)N[C@H](C)C4CCCCC4)N(C(=O)[C@@H](NC(=O)[C@H](C)NC)C(C)(C)C)C3)C2)C[C@H]1C(=O)N[C@H](C)C1CCCCC1)C(C)(C)C` (stereo partly shown) [Compound P3-46] was 0.024 µM; that for `CN[C@@H](C)C(=O)N[C@H](C(=O)N1C[C@@H](NC(=O)Cc2ccc(CC(=O)N[C@H]3C[C@@H](C(=O)N[C@@H]4CCCc5ccccc54)N(C(=O)[C@@H](NC(=O)[C@H](C)NC)C(C)(C)C)C3)cc2)C[C@H]1C(=O)N[C@@H]1CCCc2ccccc21)C(C)(C)C` [Compound P3-18] was 0.008 µM.
Still for that read-out and setting: under `CN[C@@H](C)C(=O)N[C@H](C(=O)N1C[C@@H](NC(=O)Cc2cccc(CC(=O)N[C@H]3C[C@@H](C(=O)N[C@@H]4CCCc5ccccc54)N(C(=O)[C@@H](NC(=O)[C@H](C)NC)C(C)(C)C)C3)c2)C[C@H]1C(=O)N[C@@H]1CCCc2ccccc21)C(C)(C)C` [Compound P3-19] stands 0.002 µM; under `CN[C@@H](C)C(=O)N[C@H](C(=O)N1C[C@@H](NC(=O)c2cc(C(=O)N[C@H]3C[C@@H](C(=O)NC4c5ccccc5-c5ccccc54)N(C(=O)[C@@H](NC(=O)[C@H](C)NC)C(C)(C)C)C3)[nH]n2)C[C@H]1C(=O)NC1c2ccccc2-c2ccccc21)C(C)(C)C` [Compound P3-63], 0.016 µM; under `CN[C@@H](C)C(=O)N[C@H](C(=O)N1C[C@@H](NC(=O)c2cccc(C(=O)N[C@H]3C[C@@H](C(=O)N[C@H](C)c4ccccc4)N(C(=O)[C@@H](NC(=O)[C@H](C)NC)C(C)C)C3)c2)C[C@H]1C(=O)N[C@H](C)c1ccccc1)C(C)C` [Compound P3-80], 0.053 µM.
The same measure, in the same setting: the value for `CN[C@@H](C)C(=O)N[C@H](C(=O)N1C[C@@H](NC(=O)c2cccc(C(=O)N[C@H]3C[C@@H](C(=O)N[C@H](C)C4CCCCC4)N(C(=O)[C@@H](NC(=O)[C@H](C)NC)C(C)(C)C)C3)c2)C[C@H]1C(=O)N[C@H](C)C1CCCCC1)C(C)(C)C` [Compound P3-43] was 0.057 µM.
Consider `CN[C@@H](CO)C(=O)N[C@H](C(=O)N1C[C@@H](NC(=O)c2cccc(C(=O)N[C@H]3C[C@@H](C(=O)N[C@H](C)c4ccccc4)N(C(=O)[C@@H](NC(=O)[C@H](CO)NC)C(C)C)C3)c2)C[C@H]1C(=O)N[C@H](C)c1ccccc1)C(C)C` [Compound P3-89], for which the IC50 was 0.073 µM.
The same measure, in the same setting: the value for `CN[C@@H](C)C(=O)N[C@H](C(=O)N1C[C@@H](NC(=O)c2cc(N)cc(C(=O)N[C@H]3C[C@@H](C(=O)N[C@H](C)c4ccccc4)N(C(=O)[C@@H](NC(=O)[C@H](C)NC)C4CCCCC4)C3)c2)C[C@H]1C(=O)N[C@H](C)c1ccccc1)C1CCCCC1` [Compound P3-78] was 0.049 µM; that for `CN[C@@H](C)C(=O)N[C@H](C(=O)N1C[C@@H](NC(=O)[C@H](O)[C@@H](O)C(=O)N[C@H]2C[C@@H](C(=O)NC3c4ccccc4-c4ccccc43)N(C(=O)[C@@H](NC(=O)[C@H](C)NC)C(C)(C)C)C2)C[C@H]1C(=O)NC1c2ccccc2-c2ccccc21)C(C)(C)C` [Compound P3-15] was 0.017 µM; that for `CC[C@@H](C)C(=O)N[C@H](C(=O)N1C[C@@H](NC(=O)c2cccc(C(=O)N[C@H]3C[C@@H](C(=O)NC(c4ccccc4)c4ccccc4)N(C(=O)[C@@H](NC(=O)[C@H](C)NC)C(C)(C)C)C3)c2)C[C@H]1C(=O)NC(c1ccccc1)c1ccccc1)C(C)(C)C` [Compound P3-51] was 0.026 µM.
Same read-out and setting: under `CN[C@@H](C)C(=O)N[C@H](C(=O)N1C[C@@H](NC(=O)c2cc(N)cc(C(=O)N[C@H]3C[C@@H](C(=O)NCc4ccc(F)cc4)N(C(=O)[C@@H](NC(=O)[C@H](C)NC)C(C)(C)C)C3)c2)C[C@H]1C(=O)NCc1ccc(F)cc1)C(C)(C)C` [Compound P3-71] stands 0.035 µM.
For the compound `CN[C@@H](C)C(=O)N[C@H](C(=O)N1C[C@@H](NC(=O)c2cc(Br)cc(C(=O)N[C@H]3C[C@@H](C(=O)NC4CCCc5ccccc54)N(C(=O)[C@@H](NC(=O)[C@H](C)NC)C(C)(C)C)C3)c2)CC1C(=O)N[C@@H]1CCCc2ccccc21)C(C)(C)C` (stereo partly shown) [Compound P3-29], the IC50 turned out to be 0.016 µM.
On the same count and under the same terms, the value for `CC[C@H](C)C(NC(=O)[C@H](C)NC)C(=O)N1C[C@@H](NC(=O)c2cc(OC)cc(C(=O)N[C@H]3C[C@@H](C(=O)N[C@H](C)c4ccccc4)N(C(=O)C(NC(=O)[C@H](C)NC)[C@@H](C)CC)C3)c2)C[C@H]1C(=O)NC(C)c1ccccc1` (stereo partly shown) [Compound P3-74] was 0.072 µM.

The same assay, now with this note: HCC461 cells, compound alone; read-out: IC50 (uM) in cell viability assay in HCC461.
`CN[C@@H](C)C(=O)N[C@H](C(=O)N1C[C@@H](NC(=O)c2cccc(C(=O)N[C@H]3C[C@@H](C(=O)NC4CCCC5CCCCC54)N(C(=O)[C@@H](NC(=O)[C@H](C)NC)C(C)(C)C)C3)c2)C[C@H]1C(=O)NC1CCCC2CCCCC21)C(C)(C)C` (stereo partly shown) [Compound P3-58]: the IC50 was found to be 0.211 µM.

Source of the values: patent US20130344026A1, “Dimeric Smac Mimetics” (priority 2009, published 2013).
